Measured values published in patent publication US20160083391A1, “TRICYCLIC PIPERAZINE DERIVATIVE” (Sunovion Pharmaceuticals Inc., priority 2014, published 2016).

Test system: PDE1
Assay: In vitro HTRF PDE1 inhibition assay
Format: biochemical
Conditions: HTRF cGMP assay, 100 nM cyclic GMP, PDE (1A3, 1B or 1C) with calmodulin, 45 minutes at 37° C.; isoform of the tabulated values not stated
Description: An exemplary procedure for the in vitro Homogenous Time Resolved Fluorescence assay, which can be used to determine the inhibitory action of compounds of the invention toward. PDE1 or its isoforms, follows.
The HTRF PDE1 assay utilized the HTRF (Homogenous Time Resolved Fluorescence) technology, which is based on the competition between unlabeled cyclic nucleotide and cyclic nucleotide labeled with XL665 for the binding to cyclic nucleotide-specific antibody labeled with cryptate. The HTRF signal is thus inversely proportional to the concentration of cyclic nucleotide being measured. Since phosphodiesterases break down cyclic nucleotides the HTRF signal was used to determine PDE activity.
The Cisbio cGMP HTRF assay kit (Cat no: 62GM2PEC) was utilized. Cyclic GMP was diluted to 200 nM in HTRF assay buffer (1 mM CaCl2, 10 mM MgCl2, 10 mM Tris-HCl, 0.1% BSA, pH7.4). 10 μl of compound or DMSO was diluted in 200 nM cyclic GMP solution and added to wells of a 96 well white plate to give 100 nM cyclic GMP in 1% DMSO final concentration. PDE (1A3, 1B or 1C) was diluted to 2× working concentration in HTRF assay buffer with […] Calmodulin, and 10 μl was added to initiate the reaction. The plate was then incubated for 45 minutes at 37° C. d2-Labelled cyclic GMP and anti-cGMP cryptate were diluted in 50 mM phosphate buffer, 0.8M KF, 1% Triton X100, 0.2% BSA, pH7.0. Following incubation 10 μl d2-cGMP, then 10 μl anti cGMP cryptate were added to each well and the plate was incubated for 45 minutes at room temperature. The plate was then read on Perkin Elmer Victor at 2 different FRET readings ex/emm 340 nm/665 nm and 340 nm/615 nm.
Compounds having an IC50 of <1 μM, are denoted as +++. Compounds having an IC50 of 1-10 μM, are denoted as ++. Compounds having an IC50 of >10 μM, are denoted as +.

Row | SMILES | IC50 [µM]
1 | CC(C)c1nn(C)c2c(=O)n3c(nc12)C(Cc1ccccc1)N(C)CC3 (racemic) [Compound I-42, (±)-5-Benzyl-3-isopropyl-1,6-dimethyl-5,6,7,8-tetrahydropyrazino[1,2-a]pyrazolo[4,3-d]pyrimidin-10(1H)-one] | > 10
2 | CC(C)c1n[nH]c2c(=O)n3c(nc12)C(C)N(Cc1ccccc1)CC3 (racemic) [Compound I-44, (±)-6-Benzyl-3-isopropyl-5-methyl-5,6,7,8-tetrahydropyrazino[1,2-a]pyrazolo[4,3-d]pyrimidin-10(1H)-one] | > 10
3 | CC(C)c1nn(C)c2c(=O)n3c(nc12)C(C)N(Cc1ccccc1)CC3 (racemic) [Compound I-47, (±)-6-Benzyl-3-isopropyl-1,5-dimethyl-5,6,7,8-tetrahydropyrazino[1,2-a]pyrazolo[4,3-d]pyrimidin-10(1H)-one] | > 10
4 | CC(C)n1ncc2c(=O)n3c(nc21)C(c1ccccc1)N(C)CC3 (racemic) [Compound I-60, (±)-1-Isopropyl-8-methyl-9-phenyl-6,7,8,9-tetrahydropyrazino[1,2-a]pyrazolo[3,4-d]pyrimidin-4(1H)-one] | > 10
5 | CC1CN(C)Cc2nc3c(cnn3C3CCCC3)c(=O)n21 (racemic) [Compound I-100, (±)-1-Cyclopentyl-6,8-dimethyl-6,7,8,9-tetrahydropyrazino[1,2-a]pyrazolo[3,4-d]pyrimidin-4(1H)-one] | > 10
6 | CN1Cc2nc3c(cnn3C3CCCC3)c(=O)n2C(c2ccccc2)C1 (racemic) [Compound I-102, (±)-1-cyclopentyl-8-methyl-6-phenyl-6,7,8,9-tetrahydropyrazino[1,2-a]pyrazolo[3,4-d]pyrimidin-4(1H)-one] | > 10
7 | CC1Cn2c(nc3c(cnn3C(C)C)c2=O)CN1 (racemic) [Compound I-103, (±)-1-Isopropyl-7-methyl-6,7,8,9-tetrahydropyrazino[1,2-a]pyrazolo[3,4-d]pyrimidin-4(1H)-one] | > 10
8 | CC1Cn2c(nc3c(cnn3C(C)C)c2=O)CN1C (racemic) [Compound I-104, (±)-1-Isopropyl-7,8-dimethyl-6,7,8,9-tetrahydropyrazino[1,2-a]pyrazolo[3,4-d]pyrimidin-4(1H)-one] | > 10
9 | CC(C)n1ncc2c(=O)n3c(nc21)CNC(Cc1ccccc1)C3 (racemic) [Compound I-109, (±)-7-Benzyl-1-isopropyl-6,7,8,9-tetrahydropyrazino[1,2-a]pyrazolo[3,4-d]pyrimidin-4(1H)-one] | > 10
10 | CC(c1ccc(Cl)cc1)N1CCn2c(nc3c(cnn3C3CCCC3)c2=O)C1 (racemic) [Compound I-113, (±)-8-(1-(4-Chlorophenyl)ethyl)-1-cyclopentyl-6,7,8,9-tetrahydropyrazino[1,2-a]pyrazolo[3,4-d]pyrimidin-4(1H)-one] | 1 to 10
11 | COc1ccc(C(C)N2CCn3c(nc4c(cnn4C4CCCC4)c3=O)C2)cc1 (racemic) [Compound I-114, (±)-1-Cyclopentyl-8-(1-(4-methoxyphenyl)ethyl)-6,7,8,9-tetrahydropyrazino[1,2-a]pyrazolo[3,4-d]pyrimidin-4(1H)-one] | 1 to 10
12 | COc1ccc(CN2CCn3c(nc4c(cnn4C4CCCC4)c3=O)C2C)cc1 (racemic) [Compound I-118, (±)-1-Cyclopentyl-8-(4-methoxybenzyl)-9-methyl-6,7,8,9-tetrahydropyrazino[1,2-a]pyrazolo[3,4-d]pyrimidin-4(1H)-one] | 1 to 10

More lines, now with the values ahead:

Row | IC50 [µM] | SMILES
13 | > 10 | CC(C)c1n[nH]c2c(=O)n3c(nc12)C(Cc1ccccc1)N(Cc1ccccc1)CC3 (racemic) [Compound I-45, (±)-5,6-dibenzyl-3-isopropyl-5,6,7,8-tetrahydropyrazino[1,2-a]pyrazolo[4,3-d]pyrimidin-10(1H)-one]
14 | > 10 | CC(C)c1nn(C)c2c(=O)n3c(nc12)C(Cc1ccccc1)N(Cc1ccccc1)CC3 (racemic) [Compound I-48, (±)-5,6-Dibenzyl-3-isopropyl-1-methyl-5,6,7,8-tetrahydropyrazino[1,2-a]pyrazolo[4,3-d]pyrimidin-10(1H)-one]
15 | 1 to 10 | CC(C)CC1c2nc3c(cnn3C(C)C)c(=O)n2CCN1Cc1ccccc1 (racemic) [Compound I-56, (±)-8-benzyl-9-isobutyl-1-isopropyl-6,7,8,9-tetrahydropyrazino[1,2-a]pyrazolo[3,4-d]pyrimidin-4(1H)-one]
16 | > 10 | CC1CNCc2nc3c(cnn3C3CCCC3)c(=O)n21 (racemic) [Compound I-99, (±)-1-cyclopentyl-6-methyl-6,7,8,9-tetrahydropyrazino[1,2-a]pyrazolo[3,4-d]pyrimidin-4(1H)-one]
17 | 1 to 10 | CC1CN(Cc2ccccc2)Cc2nc3c(cnn3C3CCCC3)c(=O)n21 (racemic) [Compound I-101, (±)-8-Benzyl-1-cyclopentyl-6-methyl-6,7,8,9-tetrahydropyrazino[1,2-a]pyrazolo[3,4-d]pyrimidin-4(1H)-one]
18 | < 1 | CC1Cn2c(nc3c(cnn3C(C)C)c2=O)CN1Cc1ccccc1 (racemic) [Compound I-105, (±)-8-Benzyl-1-isopropyl-7-methyl-6,7,8,9-tetrahydropyrazino[1,2-a]pyrazolo[3,4-d]pyrimidin-4(1H)-one]
19 | > 10 | CC(C)n1ncc2c(=O)n3c(nc21)CNC(c1ccccc1)C3 (racemic) [Compound I-106, (±)-1-isopropyl-7-phenyl-6,7,8,9-tetrahydropyrazino[1,2-a]pyrazolo[3,4-d]pyrimidin-4(1H)-one]
20 | > 10 | CC(C)n1ncc2c(=O)n3c(nc21)CN(C)C(c1ccccc1)C3 (racemic) [Compound I-107, (±)-1-Isopropyl-8-methyl-7-phenyl-6,7,8,9-tetrahydropyrazino[1,2-a]pyrazolo[3,4-d]pyrimidin-4(1H)-one]
21 | > 10 | CC(C)n1ncc2c(=O)n3c(nc21)CN(Cc1ccccc1)C(c1ccccc1)C3 (racemic) [Compound I-108, (±)-8-Benzyl-1-isopropyl-7-phenyl-6,7,8,9-tetrahydropyrazino[1,2-a]pyrazolo[3,4-d]pyrimidin-4(1H)-one]
22 | > 10 | CC(C)n1ncc2c(=O)n3c(nc21)CN(C)C(Cc1ccccc1)C3 (racemic) [Compound I-110, (±)-7-Benzyl-1-isopropyl-8-methyl-6,7,8,9-tetrahydropyrazino[1,2-a]pyrazolo[3,4-d]pyrimidin-4(1H)-one]
23 | 1 to 10 | CC1c2nc3c(cnn3C3CCCC3)c(=O)n2CCN1Cc1ccc(Cl)cc1 (racemic) [Compound I-117, (±)-8-(4-Chlorobenzyl)-1-cyclopentyl-9-methyl-6,7,8,9-tetrahydropyrazino[1,2-a]pyrazolo[3,4-d]pyrimidin-4(1H)-one]
24 | < 1 | CC1Cn2c(nc3c(cnn3C3CCCC3)c2=O)CN1Cc1ccc(Cl)cc1 (racemic) [Compound I-119, (±)-8-(4-Chlorobenzyl)-1-cyclopentyl-7-methyl-6,7,8,9-tetrahydropyrazino[1,2-a]pyrazolo[3,4-d]pyrimidin-4(1H)-one]
25 | < 1 | COc1ccc(CN2Cc3nc4c(cnn4C4CCCC4)c(=O)n3CC2C)cc1 (racemic) [Compound I-120, (±)-1-Cyclopentyl-8-(4-methoxybenzyl)-7-methyl-6,7,8,9-tetrahydropyrazino[1,2-a]pyrazolo[3,4-d]pyrimidin-4(1H)-one]
